Our source for the IC50 values is the Kinase Knowledgebase extract (Sharma et al. 2016).

Experiment [1] deals with PIK3CD (Human) (UniProt O00329). Kind of experiment: Cell-Based Assay. The following applies: raji.
Experiment [2] has the same target. The experiment can be described thus: Enzyme Assay.
In experiment [3] the target is PIK3CG (human) (UniProt P48736). The experiment can be described thus: Enzyme Assay.
The target of experiment [4] is PIK3CB (Human) (UniProt P42338). The experiment can be described thus: Enzyme Assay.

Where only a bound is given, the exact number is not on record here.

Sequence of PIK3CB (Human) (P42338 whole entry, looked up): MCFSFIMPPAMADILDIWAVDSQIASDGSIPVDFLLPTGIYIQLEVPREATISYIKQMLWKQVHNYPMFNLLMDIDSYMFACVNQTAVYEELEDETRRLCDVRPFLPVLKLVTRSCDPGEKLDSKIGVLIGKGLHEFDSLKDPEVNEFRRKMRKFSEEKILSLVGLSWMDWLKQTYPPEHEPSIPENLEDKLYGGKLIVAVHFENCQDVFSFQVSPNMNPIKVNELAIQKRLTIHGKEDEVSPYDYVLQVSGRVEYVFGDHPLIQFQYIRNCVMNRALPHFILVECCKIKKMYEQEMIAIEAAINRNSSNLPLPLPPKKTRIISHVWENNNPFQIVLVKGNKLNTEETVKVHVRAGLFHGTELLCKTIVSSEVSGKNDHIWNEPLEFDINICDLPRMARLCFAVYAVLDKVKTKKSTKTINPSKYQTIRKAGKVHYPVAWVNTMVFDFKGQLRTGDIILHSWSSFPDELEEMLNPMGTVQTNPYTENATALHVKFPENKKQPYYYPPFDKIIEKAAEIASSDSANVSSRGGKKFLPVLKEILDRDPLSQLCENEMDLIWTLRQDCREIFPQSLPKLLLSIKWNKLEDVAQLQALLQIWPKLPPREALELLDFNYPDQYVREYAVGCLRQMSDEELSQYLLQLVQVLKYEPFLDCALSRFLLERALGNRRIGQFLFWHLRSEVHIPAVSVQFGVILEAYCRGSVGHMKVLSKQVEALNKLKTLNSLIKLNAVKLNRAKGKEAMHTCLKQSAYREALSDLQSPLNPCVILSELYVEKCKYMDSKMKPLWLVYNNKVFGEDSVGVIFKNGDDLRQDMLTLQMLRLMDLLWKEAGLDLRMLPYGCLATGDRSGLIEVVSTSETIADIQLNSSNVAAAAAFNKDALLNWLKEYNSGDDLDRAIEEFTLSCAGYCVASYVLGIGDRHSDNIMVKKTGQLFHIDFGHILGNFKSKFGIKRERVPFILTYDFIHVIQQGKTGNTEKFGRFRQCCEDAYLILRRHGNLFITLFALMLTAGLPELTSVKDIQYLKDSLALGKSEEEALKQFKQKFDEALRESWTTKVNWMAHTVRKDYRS
Sequence of PIK3CG (human) (P48736 whole entry, looked up): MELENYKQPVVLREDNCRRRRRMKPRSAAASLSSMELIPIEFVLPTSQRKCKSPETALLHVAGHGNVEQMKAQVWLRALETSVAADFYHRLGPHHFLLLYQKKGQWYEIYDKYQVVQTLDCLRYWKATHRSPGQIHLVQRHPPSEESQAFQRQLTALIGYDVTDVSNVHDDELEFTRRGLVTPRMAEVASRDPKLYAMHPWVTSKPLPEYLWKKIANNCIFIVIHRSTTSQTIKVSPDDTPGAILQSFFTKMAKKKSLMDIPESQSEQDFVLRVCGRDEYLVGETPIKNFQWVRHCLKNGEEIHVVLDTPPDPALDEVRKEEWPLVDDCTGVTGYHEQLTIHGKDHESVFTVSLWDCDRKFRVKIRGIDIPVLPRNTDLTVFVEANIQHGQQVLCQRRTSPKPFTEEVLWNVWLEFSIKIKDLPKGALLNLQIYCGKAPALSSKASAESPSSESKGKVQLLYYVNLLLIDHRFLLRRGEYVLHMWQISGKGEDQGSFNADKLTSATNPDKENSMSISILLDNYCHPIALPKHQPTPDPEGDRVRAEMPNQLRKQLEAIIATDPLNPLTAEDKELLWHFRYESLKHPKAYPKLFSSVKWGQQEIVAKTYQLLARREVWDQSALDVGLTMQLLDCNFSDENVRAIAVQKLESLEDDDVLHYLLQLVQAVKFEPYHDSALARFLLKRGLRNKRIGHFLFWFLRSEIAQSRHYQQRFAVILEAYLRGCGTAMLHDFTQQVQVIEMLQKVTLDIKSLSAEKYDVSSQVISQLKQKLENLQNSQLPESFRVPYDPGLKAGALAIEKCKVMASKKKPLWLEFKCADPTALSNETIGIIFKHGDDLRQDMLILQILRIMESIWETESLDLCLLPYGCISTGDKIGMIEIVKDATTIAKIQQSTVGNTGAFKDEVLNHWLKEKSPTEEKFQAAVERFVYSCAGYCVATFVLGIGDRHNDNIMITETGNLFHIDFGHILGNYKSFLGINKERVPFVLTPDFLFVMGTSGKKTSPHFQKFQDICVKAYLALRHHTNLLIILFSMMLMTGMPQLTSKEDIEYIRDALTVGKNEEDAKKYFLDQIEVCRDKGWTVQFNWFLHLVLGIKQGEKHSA
Sequence of PIK3CD (Human) (O00329 whole entry, looked up): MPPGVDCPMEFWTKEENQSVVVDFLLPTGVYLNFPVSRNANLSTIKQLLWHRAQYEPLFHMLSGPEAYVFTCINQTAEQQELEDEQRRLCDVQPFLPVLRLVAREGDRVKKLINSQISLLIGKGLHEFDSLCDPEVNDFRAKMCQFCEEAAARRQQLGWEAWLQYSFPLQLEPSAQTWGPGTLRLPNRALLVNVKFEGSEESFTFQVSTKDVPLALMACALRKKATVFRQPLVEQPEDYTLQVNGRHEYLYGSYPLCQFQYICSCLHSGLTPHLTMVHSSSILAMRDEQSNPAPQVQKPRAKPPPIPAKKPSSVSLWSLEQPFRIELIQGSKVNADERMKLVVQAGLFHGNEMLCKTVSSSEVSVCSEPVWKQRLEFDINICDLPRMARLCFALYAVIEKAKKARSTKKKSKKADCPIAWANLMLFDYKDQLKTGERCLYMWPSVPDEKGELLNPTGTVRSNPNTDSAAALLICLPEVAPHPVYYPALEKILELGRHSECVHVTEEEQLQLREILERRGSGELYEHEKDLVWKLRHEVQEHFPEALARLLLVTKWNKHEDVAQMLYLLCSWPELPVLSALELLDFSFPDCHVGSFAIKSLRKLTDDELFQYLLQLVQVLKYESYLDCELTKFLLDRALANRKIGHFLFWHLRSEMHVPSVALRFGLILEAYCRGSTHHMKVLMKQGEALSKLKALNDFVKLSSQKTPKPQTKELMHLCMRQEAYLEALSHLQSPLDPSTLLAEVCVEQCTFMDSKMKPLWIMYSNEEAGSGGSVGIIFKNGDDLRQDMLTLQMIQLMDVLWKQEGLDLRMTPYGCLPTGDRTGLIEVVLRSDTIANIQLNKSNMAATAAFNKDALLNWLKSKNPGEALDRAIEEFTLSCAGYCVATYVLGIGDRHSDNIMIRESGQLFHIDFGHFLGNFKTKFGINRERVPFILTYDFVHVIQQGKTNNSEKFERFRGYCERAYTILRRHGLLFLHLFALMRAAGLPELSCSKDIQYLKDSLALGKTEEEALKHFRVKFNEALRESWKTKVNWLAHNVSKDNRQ

One may read the IC50 as the concentration needed to halve the response being measured. Lower therefore signals greater potency. In the case of `C[C@H](NC(=O)c1c(N)nn2cccnc12)c1cc2cccc(C#Cc3ccccn3)c2c(=O)n1-c1ccccc1`, the IC50 fell in the range of 500 to 1000 nM in experiment [1], 5000 to 10000 nM in experiment [2], 100 to 500 nM in experiment [3] and 5000 to 10000 nM in experiment [4].

On to `C[C@H](NC(=O)c1nccnc1N)c1cc2cccc(C#Cc3cnn(C)c3)c2c(=O)n1-c1ccccc1`, for which the IC50 fell in the range of 1 to 100 nM in experiment [1], 1000 to 5000 nM in experiment [2], 100 to 500 nM in experiment [3] and 1000 to 5000 nM in experiment [4].

Regarding `C[C@H](NC(=O)c1c(N)nn2cccnc12)c1cc2cccc(C#CC3CCOCC3)c2c(=O)n1-c1ccccc1`, the IC50 in experiment [1] is 1 to 100 nM; in experiment [2], 5000 to 10000 nM; in experiment [3], 100 to 500 nM; in experiment [4], 5000 to 10000 nM.

Take `C[C@H](NC(=O)c1c(N)nn2cccnc12)c1cc2cccc(C#Cc3ccccc3)c2c(=O)n1-c1ccccc1`: the IC50 was 1 to 100 nM in experiment [1], 1 to 500 nM in experiment [2], 1000 to 5000 nM in experiment [3] and 5000 to 10000 nM in experiment [4].

On to `Cc1nc(C)c(C#Cc2cccc3cc([C@H](C)NC(=O)c4c(N)nn5cccnc45)n(-c4ccccc4)c(=O)c23)s1`, for which the IC50 in experiment [1] was in the range of 1000 to 10000 nM; in experiment [2] it was 5000 to 10000 nM; in experiment [3], 500 to 1000 nM; in experiment [4], 5000 to 10000 nM.

With `Cc1nn(C)cc1C#Cc1cccc2cc([C@H](C)NC(=O)c3c(N)nn4cccnc34)n(-c3ccccc3)c(=O)c12`, the IC50 in experiment [1] was 500 to 1000 nM; in experiment [2], 5000 to 10000 nM; in experiment [3], 100 to 500 nM; in experiment [4], 5000 to 10000 nM.

In the case of `C[C@H](NC(=O)c1c(N)nn2cccnc12)c1cc2cccc(C#Cc3nccs3)c2c(=O)n1-c1ccccc1`, the IC50 fell in the range of 100 to 500 nM in experiment [1], 5000 to 10000 nM in experiment [2], 100 to 500 nM in experiment [3] and 5000 to 10000 nM in experiment [4].

`C[C@H](NC(=O)c1c(N)nn2cccnc12)c1cc2cccc(C#CC3CC3)c2c(=O)n1-c1ccccc1`: the IC50 lay within 100 to 500 nM in experiment [1], 1000 to 5000 nM in experiment [2], 100 to 500 nM in experiment [3] and 1000 to 5000 nM in experiment [4].

As to `COc1cnc(C(=O)N[C@@H](C)c2cc3cccc(C#Cc4cnn(C)c4)c3c(=O)n2-c2ccccc2)c(N)n1`, the IC50 in experiment [1] is 1000 to 10000 nM; in experiment [2], 5000 to 10000 nM; in experiment [3], over 5000 nM; in experiment [4], 5000 to 10000 nM.

Take `C[C@H](NC(=O)c1c(N)nn2cccnc12)c1cc2cccc(C#CC(C)(C)N)c2c(=O)n1-c1ccccc1`: the IC50 in experiment [1] is 1000 to 10000 nM; in experiment [2], 5000 to 10000 nM; in experiment [3], 500 to 1000 nM; in experiment [4], 5000 to 10000 nM.

For `C[C@H](NC(=O)c1c(N)nn2cccnc12)c1cc2cccc(C#CC=O)c2c(=O)n1-c1ccccc1`, the IC50 fell in the range of 100 to 500 nM in experiment [1], 1000 to 5000 nM in experiment [2], 1 to 100 nM in experiment [3] and 1 to 500 nM in experiment [4].

`C#Cc1cccc2nc([C@H](C)NC(=O)c3c(N)nn4cccnc34)n(-c3ccccc3)c(=O)c12`: the IC50 lay within 1 to 100 nM in experiment [1], 1000 to 5000 nM in experiment [2], 1 to 100 nM in experiment [3] and 1000 to 5000 nM in experiment [4].

As for `C[C@H](NC(=O)c1c(N)nn2cccnc12)c1cc2cccc(CC(=O)c3cn[nH]c3)c2c(=O)n1-c1ccccc1`, the IC50 in experiment [1] was in the range of 100 to 500 nM; in experiment [2], 1000 to 5000 nM; in experiment [3], 500 to 1000 nM; in experiment [4], 5000 to 10000 nM.

Consider `C[C@H](O)C#Cc1cccc2cc([C@H](C)NC(=O)c3c(N)nn4cccnc34)n(-c3ccccc3)c(=O)c12`, for which the IC50 in experiment [1] lay in the range of 100 to 500 nM; in experiment [2] it was 1000 to 5000 nM; in experiment [3] it was 1 to 100 nM; in experiment [4] it was 1000 to 5000 nM.

Consider `C#Cc1cccc2nc([C@H](C)NC(=O)c3c(N)nn4cccnc34)n(-c3ccc(F)cc3)c(=O)c12`, for which the IC50 in experiment [1] lay within 1 to 100 nM; in experiment [2], 1000 to 5000 nM; in experiment [3] it was 1 to 100 nM; in experiment [4], 5000 to 10000 nM.

Take `C[C@H](NC(=O)c1c(N)nn2cccnc12)c1cc2cccc(C#Cc3cncn3C)c2c(=O)n1-c1ccccc1`: the IC50 was in the range of 500 to 1000 nM in experiment [1], 5000 to 10000 nM in experiment [2], 100 to 500 nM in experiment [3] and 5000 to 10000 nM in experiment [4].
